Reference: patent US12201610B2, “Compositions comprising aticaprant” (Janssen Pharmaceuticals, Inc., priority 2022, dated 2025)

How the values were obtained:
[1] = Body weight by treatment group (Example 6); assay type: in vivo, human
Protocol: Treatment with aticaprant as described herein has several advantages over the treatments in the art. […] As used herein, the term “weight gain” refers to an increase in the weight of patient, relative to the weight of the patient before taking aticaprant or the weight of the patient that is assessed at the time of the initial administration of aticaprant. In certain embodiments, the patient may actually see a decrease in overall weight, relative to the weight of the patient before taking aticaprant.
At the lead-in baseline timepoint, the mean weight for subjects in the placebo group was 76.17 kg compared to 78.66 in the aticaprant group. After 6 weeks in the double-blind treatment phase, the mean weight in the placebo group was 75.75 kg compared to 78.57 kg in the aticaprant group. […] This is unexpected because other adjunctive treatments for MDD result in a mean weight increase. See, Thase M, et al. J Clin Psych. 2015: 76(9), 1224-1231; Thase, J Clin Psych. 2015, 76(9): 1232-1240; El Khalili, Int J Neuropsychopharmacol. 2010, 13, 917-932; Marcus, J. Clin. Psychopharmacol. […] Nashville, Tenn, ACNP, 2008; Earley, American College of Neuropsychopharmacology, 2007, Annual Meeting Abstracts (Boca Raton, Fla, Dec. 9-13, 2007). Nashville, TN, ACNP, 2007). See, Table 45.

subjects with MDD = test: ASEX sexual functioning score (Example 6); assay type: in vivo, human
Excerpt: As used herein, the term “decrease in sexual functioning” refers to reducing or lessening of one or more components of the human sex drive, i.e., sexual functioning. In some embodiments, the sexual functioning comprises one or more of sexual drive, sexual arousal, vaginal lubrication, erection, orgasm achievement, or orgasm satisfaction. In other embodiments, the sexual functioning comprises sexual drive. In further embodiments, the sexual functioning comprises vaginal lubrication satisfaction. In further embodiments, the sexual functioning comprises orgasm achievement. In yet other embodiments, the sexual functioning comprises orgasm satisfaction. Desirably, the patient's sexual functioning is assessed at the time of initial administration of aticaprant. Thus, the patient's sexual functioning while taking aticaprant can be compared to the patient's sexual functioning before administration of aticaprant. Sexual functioning may be assessed by using standard scales and techniques such as the Arizona Sexual Experience Scale (ASEX). The ASEX is used to investigate whether aticaprant has a further positive or negative effect on sexual function. The ASEX is 5 item rating scale administered to patients that quantifies sexual drive, sexual arousal, vaginal lubrication or penile erection, ability to reach orgasm and satisfaction. Scores range from 5 to 30, and two different versions of the scale are available (males and females).
Patients had their sexual functioning measured using a standard, well accepted rating scale: ASEX. See, Table 48.

## Cc1cc(C)cc(C2CCCN2Cc2ccc(Oc3ccc(C(N)=O)cc3F)cc2)c1 (stereo not drawn) [aticaprant, 3-fluoro-4-4-2-(3,5-dimethylphenyl)pyrrolidin-1-yl-methylphenoxybenzamide]
[1]; Lead-in Baseline, n = 85
  Mean weight, mean (SE): 78.66 (1.65) kg
[1]; Screening, n = 85
  Mean weight, mean (SE): 78.42 (1.65) kg
[1]; Withdrawal Baseline, n = 85
  Mean weight, mean (SE): 78.57 (1.71) kg
[1]; after 6 weeks in the double-blind treatment phase
  mean weight: 78.57 kg
[1]; lead-in baseline timepoint
  mean weight: 78.66 kg
[1]; n = 85
  Weight Absolute Change (Withdrawal—Lead-in): -0.09 kg
  Weight Relative % Change: −0.11%
Subjects with MDD; Baseline, n = 85
  ASEX score: 21.26
Subjects with MDD; Endpoint, n = 85
  ASEX score: 19.79
Subjects with MDD; n = 85
  ASEX score Relative % Change: −6.91%
Subjects with MDD; n = 85, lower score indicates improvement
  ASEX score Absolute Change: −1.47
Subjects with MDD; to week 6, lower score indicates improvement
  ASEX total score mean change from treatment baseline (SD): −1.5 (4.02) points
